Experimental findings from US9061060B2, “Deuterated benzylbenzene derivatives and methods of use” (Theracos Inc., priority 2008, dated 2015) are described below.

For one series, the target named is T1, human SGLT2 (Homo sapiens, UniProt P31639).
T1 construct: A full-length cDNA clone expressing human SGLT2 (GenScript Corporation)
T1 sequence (P31639 1-672): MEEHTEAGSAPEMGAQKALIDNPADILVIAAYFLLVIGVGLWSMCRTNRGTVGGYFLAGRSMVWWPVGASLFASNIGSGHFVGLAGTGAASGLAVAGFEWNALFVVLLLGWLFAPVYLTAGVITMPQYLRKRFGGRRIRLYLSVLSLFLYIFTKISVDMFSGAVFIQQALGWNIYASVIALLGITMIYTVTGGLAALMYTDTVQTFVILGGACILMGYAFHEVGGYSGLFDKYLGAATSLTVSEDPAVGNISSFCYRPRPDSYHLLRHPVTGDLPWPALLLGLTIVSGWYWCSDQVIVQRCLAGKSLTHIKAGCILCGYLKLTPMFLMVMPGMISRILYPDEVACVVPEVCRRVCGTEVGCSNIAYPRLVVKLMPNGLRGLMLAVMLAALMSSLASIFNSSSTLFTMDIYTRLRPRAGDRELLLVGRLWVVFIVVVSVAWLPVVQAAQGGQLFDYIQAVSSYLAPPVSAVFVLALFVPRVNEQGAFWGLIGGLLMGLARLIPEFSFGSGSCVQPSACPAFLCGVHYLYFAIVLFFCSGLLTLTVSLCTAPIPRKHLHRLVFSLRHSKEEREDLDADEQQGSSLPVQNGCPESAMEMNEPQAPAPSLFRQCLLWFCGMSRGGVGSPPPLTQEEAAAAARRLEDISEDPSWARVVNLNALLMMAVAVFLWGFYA
As to the kind of experiment: Methyl-α-D-[U-14C]glucopyranoside uptake assay, cells stably expressing human SGLT2. It is filed as cell-based. Particulars: for IC50: HEK293.ETN cells expressing human SGLT2, 25% human serum, 1.5 hours; for Selectivity: SGLT1 IC50 divided by SGLT2 IC50. An excerpt: A full-length cDNA clone expressing human SGLT2 (GenScript Corporation) was subcloned into Hind III and Not I sites of the pEAK15 expression vector. Clones harboring the cDNA inserts were identified by restriction analysis.
A plasmid containing human SGLT2 was linearized with Nsi I and purified by agarose gel electrophoresis. Using Lipofectamine 2000 Transfection Reagent (Invitrogen Corporation), DNA was transfected into HEK293.ETN cells and cultured in Dulbecco's Modified Eagle Medium (DMEM) containing 10% fetal bovine serum (FBS) at 37° C. under 5% CO2 for 24 hours. Transfectants were selected in the same growth medium supplemented with puromycin (Invitrogen Corporation) for two weeks. Puromycin-resistant cells were recovered and seeded on a fresh 96-well plate (single cell per well) and cultured in the presence of puromycin until cells became confluent.
Cells expressing SGLT1 or SGLT2 were seeded on 96-well ScintiPlate scintillating plates (PerkinElmer, Inc.) in DMEM containing 10% FBS (1×10^5 cells per well in […] medium) incubated at 37° C. under 5% CO2 for 48 hours prior to the assay.

The target in a further series is T2, CYP1A2 (Homo sapiens, UniProt P05177).
T2 construct: purchased Promega
T2 sequence (P05177 1-516): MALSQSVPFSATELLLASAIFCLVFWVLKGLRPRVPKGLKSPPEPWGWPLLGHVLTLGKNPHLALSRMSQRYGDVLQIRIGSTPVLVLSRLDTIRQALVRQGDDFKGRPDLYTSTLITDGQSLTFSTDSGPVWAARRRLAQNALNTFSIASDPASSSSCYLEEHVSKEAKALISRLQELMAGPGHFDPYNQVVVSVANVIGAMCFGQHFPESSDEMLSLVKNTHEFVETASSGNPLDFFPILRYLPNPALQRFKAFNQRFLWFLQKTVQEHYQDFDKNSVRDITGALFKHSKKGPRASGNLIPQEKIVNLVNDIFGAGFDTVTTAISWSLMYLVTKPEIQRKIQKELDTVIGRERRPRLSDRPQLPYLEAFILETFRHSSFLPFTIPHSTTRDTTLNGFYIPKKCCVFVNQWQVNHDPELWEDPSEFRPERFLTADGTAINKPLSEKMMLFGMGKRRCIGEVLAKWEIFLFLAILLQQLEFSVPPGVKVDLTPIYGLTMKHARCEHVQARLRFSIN
Briefly: P450-Glo CYP screening kit, CYP1A2 inhibition. It is filed as in vitro ADME. Particulars: luminescence, read-out: IC50 1A2. An excerpt:
(§1) P450-Glo™ CYP Screening Kits for CYP1A2, CYP3A4 and CYP2C19 were purchased from Promega. […] Luminescence was quantified using a Victor 3 spectrophotometer (PerkinElmer).

A further series concerns the target T3, CYP2C19 (Homo sapiens, UniProt P33261).
T3 construct: purchased Promega
Briefly: P450-Glo CYP screening kit, CYP2C19 inhibition. The series is classed as in vitro ADME. Particulars: luminescence, read-out: IC50 2C19.
Text: as §1

Series [1] is described as follows: Metabolism in SD rats: distribution of metabolites in urine. Particulars: male SD rats, 50 mg/kg oral, five consecutive days, HPLC. The series is classed as in vivo. Here is the method:
Each test compound was dissolved in 30% PEG400 and administered orally to male SD rats by gavages at the dose level of 50 mg/kg (when using co-crystals, the weight calculation was based on free drug) for five consecutive days. Control rats were given 30% PEG400 only. All rats were housed in metabolic cages individually. Food and water were supplied ad libitum. Clinical observations (with attention to diarrhea symptoms) were performed twice daily. Food and water consumption were determined daily. Urine was collected pre-determined intervals: pre-dose, 0-4 hours, 4-8 hours, and 8-24 hours post-dose. Metabolites were analyzed and identified by LC/MS. The structures of the metabolites were confirmed by re-synthesis or isolation from the urine by preparative HPLC and NMR analysis. On day 6, all animals were sacrificed and gross necropsy was performed. The urine from two rats for each test compound was collected and pooled. The samples were diluted (1 mL urine in 4 mL of methanol) and analyzed by LC-MS: Waters 2695 Separations Module equipped with a Waters 2996 Photodiode Array Detector and a Waters Micromass ZQ Detector; Waters XTerra C18 3.5 μm, 20 mm×2.1 mm column, 1.0 mL/min, detection at 190-400 nm; 1.7 min gradient 10-50% A, followed by 1.8 min gradient 50-95% A, hold 1 min at 95% A; solvent A: 100% acetonitrile+0.045% formic acid; solvent B: Milli-Q water+0.1% formic acid. The urine samples were analyzed from 0-4 hours, 4-8 hours, 8-24 hours and 0-24 hours after administration. The ratio of metabolites was highly consistent within each time for each rat. The metabolites were identified by mass then re-synthesized to confirm their identity and the relative distribution was assayed using HPLC. […] See also FIGS. 1, 2A-2C, 3A-3D, and 4A-4C.

Structures are written as SMILES.

T3 sequence (P33261 whole entry): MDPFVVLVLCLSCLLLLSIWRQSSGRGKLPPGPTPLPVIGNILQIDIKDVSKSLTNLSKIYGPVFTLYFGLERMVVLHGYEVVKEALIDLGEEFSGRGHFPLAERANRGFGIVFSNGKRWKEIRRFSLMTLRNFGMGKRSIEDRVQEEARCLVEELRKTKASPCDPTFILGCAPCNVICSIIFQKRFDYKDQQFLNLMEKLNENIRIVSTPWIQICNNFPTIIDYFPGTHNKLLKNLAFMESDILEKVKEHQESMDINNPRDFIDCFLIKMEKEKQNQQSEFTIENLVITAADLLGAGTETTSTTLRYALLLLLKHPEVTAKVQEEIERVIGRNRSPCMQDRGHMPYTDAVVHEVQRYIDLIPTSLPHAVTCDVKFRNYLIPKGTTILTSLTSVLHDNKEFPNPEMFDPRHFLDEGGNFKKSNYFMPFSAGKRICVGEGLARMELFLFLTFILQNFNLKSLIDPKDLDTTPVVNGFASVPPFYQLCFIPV

In the case of `COc1ccc(Cc2cc([C@@H]3O[C@H](CO)[C@@H](O)[C@H](O)[C@H]3O)ccc2Cl)cc1` [Ref B, (2S,3R,4R,5S,6R)-2-(4-chloro-3-(4-methoxybenzyl)phenyl)-6-(hydroxymethyl)tetrahydro-2H-pyran-3,4,5-triol, reference compound], the values for the IC50 on human SGLT2, at CYP1A2 and on CYP2C19 were 0.0019 µM, above 1000 µM and 195 µM, respectively. The molecule further registered a Selectivity at human SGLT2 of 284. Moreover, the “Distribution of Metabolites in Urine (% of total), Peak 1 (Parent)” value in series [1] was found to be 72%.
For `[2H]C([2H])([2H])Oc1ccc(C([2H])([2H])c2cc([C@@H]3O[C@H](CO)[C@@H](O)[C@H](O)[C@H]3O)ccc2Cl)cc1` [compound 19, (2S,3R,4R,5S,6R)-2-(4-chloro-3-((4-(methoxy-d3)phenyl)methyl-d2)phenyl)-6-(hydroxymethyl)tetrahydro-2H-pyran-3,4,5-triol], in that order: 0.0008 µM, above 1000 µM, 355 µM, 1025 and 87%.

In general, IC50 refers to the concentration that gives 50% inhibition.
